Entries after “also recorded” stand apart in the source; their conditions may differ.
What was measured:
BMDM [1] = assay: IL-6 ELISA on supernatant of LPS-stimulated BMDM; format: cell-based, mouse; conditions: 1 μg/mL LPS, 6 hours; 20 μM JSH-23, 20 μM PD98059, 1 μM SP600125, 5 μM 4μ8C
Procedure: (§1) Tissue culture conditions and Reagents. HEK293 cells, primary lung fibroblasts and BMDM were isolated and maintained as described (41-43). Cells were treated with LPS (Sigma, L4391), 4μ8C (Tocris, 4479), tunicamycin (Tocris, 3516), PD98059 (Medchem Express HY-12028), JSH-23 (Medchem Express, Hy-13982), SP600125 (Medchem Express, HY-12041), cycloheximide (Tocris, 0970), lactacystin (Cayman Chemical, 70980), chloroquine (Fisher, ICN19391925), and STF 083010 (Medchem Express, HY-15845) as described in the text.
(§2) ELISA. ELISA for IL-6 and TNFα were performed as previously described (Remick et al., 2002). Antibodies used were: anti-mouse IL-6 MP5-20F3 (Biolegend, 504501) 0.5 μg/mL; biotin anti-mouse IL-6 MP5-32C11 (Biolegend, 504601) 1 μg/mL; anti-mouse TNFα (R&D systems, AF-410-NA) 0.5 μg/mL; biotin anti-mouse TNFα (R&D systems, BAF410) 0.25 μg/mL.
Tissue culture conditions and Reagents. HEK293 mTLR4/MD2/CD14 (Invivogen, 293-mtlr4md2cd14), primary lung fibroblasts, and BMDM were isolated and maintained as described (Zhang et al., 2008; Seluanov et al., 2010). Cells and animals were treated with LPS (Sigma, L4391), 4μ8C (Tocris, 4479), APY-29 (Medchem Express HY-17537), PD98059 (Medchem Express HY-12028), JSH-23 (Medchem Express, HY-13982), SP600125 (Medchem Express, HY-12041), STF 083010 (Medchem Express, HY-15845), Fluvoxamine (Medchem Express, HY-B0103A), and Ceftriaxone (Hospira, NDC: 0409-7337-01), as described in the text.
ELISA. ELISA for IL-6 and TNF-α were performed as previously described (Remick et al., 2002). Antibodies used were: anti-mouse IL-6 MP5-20F3 (Biolegend, 504501) 0.5 μg/mL; biotin anti-mouse IL-6 MP5-32C11 (Biolegend, 504601) 1 μg/mL; anti-mouse TNF-α (R&D systems, AF-410-NA) 0.5 μg/mL; biotin anti-mouse TNF-α (R&D systems, BAF410) 0.25 μg/mL.

[2] = target: T1, IRE1 endonuclease activity (Mus musculus, UniProt Q9EQY0); assay: XBP1 splicing ratio by qPCR in BMDM; format: cell-based; conditions: WT and S1R KO BMDM, 100 ng/mL LPS + 5 μM 4μ8C, 6 hours
T1 construct: We prepared bone marrow derived macrophages (BMDM) from WT and S1R KO mice; endogenous in cells; host or cells: primary mouse bone marrow derived macrophages (WT and S1R KO, C57BL/6J background)
T1 sequence (Q9EQY0 21-977): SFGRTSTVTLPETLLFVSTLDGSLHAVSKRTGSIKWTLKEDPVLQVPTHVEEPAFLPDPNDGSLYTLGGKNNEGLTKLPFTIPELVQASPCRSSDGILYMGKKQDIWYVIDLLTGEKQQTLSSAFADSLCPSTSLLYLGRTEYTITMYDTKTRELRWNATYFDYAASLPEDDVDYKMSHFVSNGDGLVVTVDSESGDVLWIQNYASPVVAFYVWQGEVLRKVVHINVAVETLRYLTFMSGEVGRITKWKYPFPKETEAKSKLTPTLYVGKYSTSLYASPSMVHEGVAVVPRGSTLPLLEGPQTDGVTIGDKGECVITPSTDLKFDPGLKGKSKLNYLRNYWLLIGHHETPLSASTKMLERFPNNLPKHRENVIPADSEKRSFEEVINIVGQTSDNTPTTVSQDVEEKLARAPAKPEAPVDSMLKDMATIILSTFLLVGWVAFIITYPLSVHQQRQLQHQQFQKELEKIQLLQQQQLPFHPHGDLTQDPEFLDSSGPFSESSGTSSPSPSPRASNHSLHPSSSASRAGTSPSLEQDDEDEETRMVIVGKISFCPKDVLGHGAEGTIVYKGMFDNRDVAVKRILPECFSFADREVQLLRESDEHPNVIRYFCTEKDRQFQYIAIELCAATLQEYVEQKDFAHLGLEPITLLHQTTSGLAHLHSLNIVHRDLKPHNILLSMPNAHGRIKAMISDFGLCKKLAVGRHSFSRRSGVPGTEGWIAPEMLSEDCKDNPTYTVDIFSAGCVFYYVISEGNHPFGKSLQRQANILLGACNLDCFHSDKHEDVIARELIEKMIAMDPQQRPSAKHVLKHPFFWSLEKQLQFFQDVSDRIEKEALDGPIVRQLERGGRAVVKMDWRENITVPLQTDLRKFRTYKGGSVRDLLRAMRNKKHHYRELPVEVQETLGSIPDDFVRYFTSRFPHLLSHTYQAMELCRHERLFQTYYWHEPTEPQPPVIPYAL
Procedure: as §1
(§3) cDNA synthesis and quantitative RT-PCR. Total RNA was extracted using an ISOLATE II RNA (Bioline, 52073) and cDNA synthesis was performed with the ISCRIPT™ kit (Bio-Rad, 170-8891). TaqMan Probes were obtained from Life Technologies (GAPDH: Mm99999915_g1; IL-6: Mm00446190_m1; pro-IL-1β: Mm00434228_m1; TNFα: Mm00443258_m1). Primers for IRE1 detection were GCACGUGAAUUGAUAGAGA (SEQ ID NO: 10) and UCUCUAUCAAUUCACGUGC (SEQ ID NO: 11). Primers for the detection of XBP1 were previously published (Lipson et al., 2008). RT-PCR was performed as described previously (Gaultier et al., 2009).
(§4) cDNA synthesis and quantitative PCR. Total RNA was extracted using an ISOLATE II RNA kit (Bioline, 52073) and cDNA synthesis was performed with the SENSIFAST™ cDNA synthesis kit (Bioline, BIO-65054). TaqMan Probes were obtained from Thermo Fisher (GAPDH: Mm99999915_g1; IL-6: Mm00446190_m1; pro-IL-1β: Mm00434228_m1; IL10: Mm004396). Primers for the detection of XBP1, IL-8, and actin were previously published (Vandesompele et al., 2002; Kumar & Valdivia, 2008; Girard et al., 2009). qPCR was performed as described previously (Gaultier et al., 2008).

IRE1 transcript = assay: qPCR for IRE1 expression in BMDM; format: cell-based, mouse; conditions: S1R KO BMDM, 5 μM 4μ8C
Procedure: as §3

BMDM [3] = assay: qPCR for pro-inflammatory cytokine expression in LPS-treated BMDM; format: cell-based, mouse; conditions: 100 ng/mL LPS + 5 μM 4μ8C, 6 hours
Procedure: as §3, §4

primary lung fibroblasts = assay: IL-6 ELISA on supernatant of LPS-stimulated primary lung fibroblasts; format: cell-based, mouse; conditions: 1 μg/mL LPS + 5 μM 4μ8C, 6 hours
Procedure: as §1, §2
Tissue culture conditions and Reagents. HEK293 mTLR4/MD2/CD14 (Invivogen, 293-mtlr4md2cd14), primary lung fibroblasts, and BMDM were isolated and maintained as described (Zhang et al., 2008; Seluanov et al., 2010). […]

[4] = cited from earlier work
[5] = system: transgenic (3×Tg-AD) mice; conditions: cited from earlier work
[6] = pre-clinical tests; cited from earlier work
sigma-1 receptor = sigma-1 receptor (Homo sapiens, UniProt Q99720); conditions: cited from earlier work
sigma-1 receptor, sequence (Q99720 whole entry): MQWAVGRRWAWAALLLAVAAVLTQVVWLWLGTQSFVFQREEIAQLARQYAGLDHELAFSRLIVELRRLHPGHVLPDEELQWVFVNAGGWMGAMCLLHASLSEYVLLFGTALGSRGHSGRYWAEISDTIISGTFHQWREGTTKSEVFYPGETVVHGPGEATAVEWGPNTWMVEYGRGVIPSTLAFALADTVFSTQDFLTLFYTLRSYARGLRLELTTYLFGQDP

muscarinic receptor = conditions: cited from earlier work
mice = mice treated with scopolamine, synthetic Aβ oligomer injection, or dizocilpine; cited from earlier work
tau hyperphosphorylation = conditions: cited from earlier work

Cc1cc(=O)oc2c(C=O)c(O)ccc12 [4μ8C, 7-Hydroxy-4-methyl-2-oxo-2H-1-benzopyran-8-carboxaldehyde]
Difference in LPS-induced IL-6 secretion between WT and S1R KO BMDM (BMDM [1]): rescued IL-6 secretion in S1R KO cells to the levels observed in control BMDM
LPS induced XBP1 splicing [2]: completely abolished
IRE1 transcript levels (IRE1 transcript): restores IRE1 transcript levels to those observed in WT BMDM
Potentiated cytokine expression in S1R KO BMDM relative to WT (qPCR) (BMDM [3]): inhibits potentiation of cytokine expression in S1R KO BMDM; also recorded: reversed IL-6 expression in KO cells to the amount observed in WT BMDM
IL-1β expression (qPCR) (BMDM [3]; WT and S1R KO BMDM): decreases
IL-6 expression (qPCR) (BMDM [3]; WT and S1R KO BMDM): decreases
IL-6 / cytokine secretion by lung fibroblasts upon LPS stimulation (primary lung fibroblasts): marked decrease of cytokine secretion
Half-life in vivo [4]: short half-life

CC1SC2(CCN(C)CC2)CN1C(=O)CCc1c[nH]c2ccccc12 (centres unmarked) [ANAVEX® 3-71, 1-(2,8-dimethyl-1-thia-3,8-diazaspiro(4.5)dec-3-yl)-3-(1H-indol-3-yl)propan-1-one]
Effect on major Alzheimer's hallmarks (cognitive deficits, amyloid and tau pathologies) [5]: highly effective in very small doses

CN(C)CC1COC(c2ccccc2)(c2ccccc2)C1.Cl (centres unmarked) [ANAVEX® 1-41, tetrahydro-N,N-dimethyl-5,5-di phenyl-3-furanmethanamine hydrochloride]
Neuroprotective benefits [6]: significant neuroprotective benefits

CN(C)CC1CCOC1(c1ccccc1)c1ccccc1.Cl (centres unmarked) [ANAVEX® 2-73, tetrahydro-N,N-dimethyl-2,2-diphenyl-3-furanmethanamine hydrochloride]
Affinity for / binding to sigma-1 receptor (S1R) (sigma-1 receptor): high nanomolar range
Binding to the muscarinic receptor (muscarinic receptor): low micromolar range
Memory and neuroprotection effects (mice): memory-preserving and neuroprotective effects
Tau hyperphosphorylation (tau hyperphosphorylation): may block tau hyperphosphorylation

Reference: patent US20220023291A1, “COMPOSITIONS AND METHODS FOR REGULATING INFLAMMATION” (University of Virginia Patent Foundation, priority 2018, published 2022)
